This series can be described thus: xn = mol fraction of the nth substance listed. The note with it: 100 kPa, x1 = 0.333.

As a reminder, the viscosity is the internal friction of a fluid under shear. Read a low viscosity as a thin fluid.

Consider `CCn1cc[nH+]c1.[Cl-]` + OCC(O)CO, for which the viscosity reads like this: (298.15 K) 79.9 mPa·s; (313.15 K) 45.3 mPa·s; (323.15 K) 32 mPa·s; (333.15 K) 23 mPa·s.
For `CC[n+]1ccn(C)c1.[Cl-]` + OCC(O)CO, the viscosity is, setting by setting: (298.15 K) 156.4 mPa·s; (313.15 K) 85.1 mPa·s; (323.15 K) 58.5 mPa·s; (333.15 K) 41.2 mPa·s.
For the compound `Cn1cc[nH+]c1.[Cl-]` + OCC(O)CO, the viscosity runs as follows: (303.15 K) 103.1 mPa·s; (323.15 K) 49.1 mPa·s.

Source of the values: a compilation of properties of binary mixtures (doi:10.1016/j.molliq.2022.119052).
